Data: patent US4305940A, “Benzamides with local anaesthetic and antiarrhythmic activity, salts, and method of preparation thereof and pharmaceutical compositions therefrom” (B.B.R. Boehringer Biochemia Robin S.p.A., priority 1979, dated 1981)
Where a name gives a salt, the structure may show the parent alone.

Assays:
in vivo = conditions: rat, in vivo, ip; 5 days; hydrochloride salts; range in parentheses; read-out: DL50 i.p.
Description: (§1) The behavior of the animals has then been followed for a period of five days. The DL50 has been determined according to the method of I. T. Litchfield and F. Wilcoxon, (J. Pharmacol. Exper. Ther., 96, 99, 1949). The compound numbers in Table II correspond to the numbers in Table I.

Swiss rats = experiment: in vivo; conditions: lidocaine = 1
Description: as §1

corneal reflux = experiment: Surface anaesthesia (corneal reflux, conjunctival sac); conditions: for Surface anaesthesia DL50/CE50: analogous to therapeutic index, DL50 i.p.; for Surface anaesthesia CE50: concentration in percent achieving 50% of total responses, pH 7 saline, hydrochloride salts; for Surface anaesthesia activity with respect to lidocaine: lidocaine = 1
Method: (§2) The data reported hereinbelow relate in every instance to the hydrochloride salts of the individual compounds.
The surface anaesthesia has been determined in rabbits according to the method of M. R. A. Change and H. Lobstein (J. Pharmacol. Exper. Ther., 82, 203, 1944). The compounds dissolved in physiological saline solution of pH 7 were injected into the conjunctival sac and the corneal reflux was induced with the brush of Frey six times at intervals of five minutes for a total period of 40 minutes.

[1] = system: response to skin puncture; experiment: Anaesthesia by infiltration (subcutaneous, back puncture); assay type: in vivo, guinea pigs; conditions: for Infiltration anaesthesia DL50/CE50: analogous to therapeutic index, DL50 i.p.; for Infiltration anaesthesia CE50: concentration in percent achieving 50% of total responses, hydrochloride salts; for Infiltration anaesthesia DL50/CE50 relative to lidocaine / Infiltration anaesthesia activity with respect to lidocaine: lidocaine = 1
Method: The anaesthesia by infiltration has been determined in guinea pigs according to the method of E. Bulbring and I. Wajda, (Journal of Pharmacol. Exper. Ther. 85, 78, 1945). In each experiment, four doses of the substance in 0.25 cc of physiological saline solution is injected subcutaneously on the back after removal of hair. After five minutes, each animal is punctured six times at intervals of […].
The test was repeated every five minutes for a period of 30 minutes. The extent of anaesthesia by infiltration was measured quantitatively by determining the sum of the instances in which the animal remained immobile during the thirty minute period on 36 possible blinks.

[2] = system: reflux of contraction of the lower limbs (lumbar plexus); experiment: Anaesthesia by conduction (lumbar plexus); assay type: in vivo, frogs; conditions: for Conduction anaesthesia DL50/t' / Conduction anaesthesia 1/t'max. (c = 1%) with respect to lidocaine: c = 1%; for Conduction anaesthesia DL50/t': DL50 i.p.; for Conduction anaesthesia 1/t'max. (c = 1%) with respect to lidocaine / Conduction anaesthesia DL50/t' relative to lidocaine: lidocaine = 1
Description: Anaesthesia by conduction has been determined on frogs according to the method of E. Bulbring and I. Wajda (Journal Pharmacol. Exper. Ther., 85, 78, 1945). The compounds dissolved in physiological saline solution are introduced into the cavity obtained by a transversal incision in the abdomen and separating the viscera in order to expose the lumbar plexus. The period of time necessary to eliminate the reflux of contraction of the lower limbs stimulated by immersion of both posterior legs into hydrochloric acid of increasing concentration between 0.05-0.1-0.2 N for a period not in excess of ten seconds, at intervals of one minute is determined. The extent of anaesthesia of conduction has been determined by measuring the period of time required for each compound in three different concentrations, 0.2%-0.5%-1.0% in order to abolish the reflex of contraction with the concentration of hydrochloric acid indicated hereinabove.

[3] = system: aconitine-induced ventricular arrhythmia; experiment: Anti-arrhythmic activity, aconitine infusion; assay type: in vivo, Wistar rats; conditions: for Aconitine i.v. necessary to induce ventricular arrhythmia: 3 min before aconitine 10 mcg/kg/min
Method: as §2
This determination has been made in Wistar rats, anaesthetized with ethylurethane, (1 g/kg i.p.), according to the method of B. Vargaftig and J. L. Coigner (European Journal Pharmacology, 6, 49, 1969). The compounds dissolved in physiological saline solution, are injected intravenously three minutes prior to the infusion of aconitine, (10 mcg/kg/min.). The extent of anti-arrhythmic activity is determined quantitatively by determining the amount of aconitine necessary to induce ventricular arrhythmia.

SMILES | LD50 at 120 h (in vivo) [mg/kg] | DL50 i.p. relative to lidocaine (Swiss rats) | Surface anaesthesia DL50/CE50 (corneal reflux) | Surface anaesthesia CE50 (corneal reflux) [%] | Surface anaesthesia activity with respect to lidocaine (corneal reflux) | Infiltration anaesthesia DL50/CE50 [1] | Infiltration anaesthesia CE50 [1] [%] | Infiltration anaesthesia DL50/CE50 relative to lidocaine [1] | Infiltration anaesthesia activity with respect to lidocaine [1] | Conduction anaesthesia DL50/t' [2] | Conduction anaesthesia 1/t'max. (c = 1%) with respect to lidocaine [2] | Conduction anaesthesia DL50/t' relative to lidocaine [2] | further results
CCN(CC)Cc1cccc(C(=O)Nc2c(C)cccc2C)c1 [Compound 2] | 67 | 0.47 | 163 | 0.41 | 5.60 | 291 | 0.23 | 1.54 | 3.26 | 67 | 11.1 | 5.15 | Aconitine i.v. necessary to induce ventricular arrhythmia ([3]; 1.0 mg/kg i.v.): 43 ± 8 µg/kg; Aconitine i.v. necessary to induce ventricular arrhythmia ([3]; 3.0 mg/kg i.v.): 77 ± 9 µg/kg; Aconitine i.v. necessary to induce ventricular arrhythmia ([3]; 6.0 mg/kg i.v.): 82 ± 9 µg/kg
CCN(CC)Cc1ccccc1C(=O)Nc1c(C)cccc1C [Compound 1, 2,6-Dimethylanilide of 2-diethylaminomethylbenzoic acid] | 17.2 | 0.12 | 34 | 0.50 | 4.60 | 69 | 0.25 | 0.36 | 3.00 | 6 | 3.6 | 0.46 | Aconitine i.v. necessary to induce ventricular arrhythmia ([3]; 0.6 mg/kg i.v.): 50 ± 5 µg/kg; Aconitine i.v. necessary to induce ventricular arrhythmia ([3]; 1.0 mg/kg i.v.): 67 ± 8 µg/kg; Aconitine i.v. necessary to induce ventricular arrhythmia ([3]; 3.0 mg/kg i.v.): 69 ± 8 µg/kg; Anti-arrhythmic activity compared with lidocaine ([3]; times more active than lidocaine): at least twenty times more active than lidocaine; Anti-arrhythmic activity compared with quinidine ([3]; times more active than quinidine): at least ten times more active than quinidine
Cc1cccc(C)c1NC(=O)c1ccccc1CN1CCOCC1 [Compound 10] | 230 | 1.62 | 34 | 6.86 | 0.34 | 98 | 2.34 | 0.52 | 0.32 | 21 | 1.0 | 1.61 | 
Cc1cccc(C)c1NC(=O)c1ccc(CN2CCOCC2)cc1 [Compound 12] | 230 | 1.62 | 82 | 2.82 | 0.82 | 102 | 2.25 | 0.54 | 0.33 | 57 | 2.7 | 4.46 | 
Cc1cccc(C)c1NC(=O)c1ccccc1CN1CCCC1 [Compound 4] | 55 | 0.39 | 30 | 1.85 | 1.24 | 162 | 0.34 | 0.86 | 2.20 | 55 | 11.1 | 4.23 | 
Cc1cccc(C)c1NC(=O)c1ccc(CN2CCCC2)cc1 [Compound 6] | 215 | 1.51 | 13 | 16.03 | 0.14 | 48 | 4.50 | 0.25 | 0.16 | 107 | 5.5 | 8.31 | 
CCN(CC)CC(=O)Nc1c(C)cccc1C [Lidocaine hydrochloride, reference compound] |  |  |  |  |  |  |  |  |  |  |  |  | Aconitine i.v. necessary to induce ventricular arrhythmia ([3]; 12.5 mg/kg i.v.): 41 ± 4 µg/kg; Aconitine i.v. necessary to induce ventricular arrhythmia ([3]; 25.0 mg/kg i.v.): 54 ± 5 µg/kg
Cc1cccc(C)c1NC(=O)c1ccccc1CN1CCCCC1 [Compound 7] | 87.1 | 0.61 | 290 | 0.30 | 7.66 | 414 | 0.21 | 2.19 | 3.57 | 87 | 11.1 | 6.69 | 
Cc1cccc(C)c1NC(=O)c1cccc(CN2CCCCC2)c1 [Compound 8] | 205 | 1.44 | 73 | 2.82 | 0.82 | 569 | 0.36 | 3.01 | 2.08 | 41 | 2.2 | 3.15 | 
C=C[C@H]1C[N@@]2CC[C@H]1C[C@@H]2[C@@H](O)c1ccnc2ccc(OC)cc12 [Quinidine sulfate, reference compound] |  |  |  |  |  |  |  |  |  |  |  |  | Aconitine i.v. necessary to induce ventricular arrhythmia ([3]; 10.0 mg/kg i.v.): 50 ± 3 µg/kg; Aconitine i.v. necessary to induce ventricular arrhythmia ([3]; 40.0 mg/kg i.v.): 88 ± 11 µg/kg
Cc1cccc(C)c1NC(=O)c1cccc(CN2CCCC2)c1 [Compound 5] | 225 | 1.58 | 9 | 24.12 | 0.09 | 28 | 8.01 | 0.15 | 0.09 | 225 | 11.1 | 17.31 | 
Cc1cccc(C)c1NC(=O)c1ccc(CN2CCCCC2)cc1 [Compound 9, 2,6-Dimethylanilide of 4-piperidinomethyl-benzoic acid] | 210 | 1.48 | 109 | 1.92 | 1.20 | 750 | 0.28 | 3.97 | 2.67 | 19 | 1.0 | 1.46 | 
Cc1cccc(C)c1NC(=O)c1cccc(CN2CCOCC2)c1 [Compound 11] | 260 | 1.83 | 22 | 11.90 | 0.19 | 273 | 0.95 | 1.44 | 0.79 | 29 | 1.2 | 2.15 | 
